Our source for the GI50 and TGI values is PubChem BioAssay (NCI).

Common to all, as to assay: inhibition of tumour cell growth, NCI panel, 48 h
Assay [1] concerns MDA-MB-231 breast.
The subject of assay [2] is HCT-116 colon.
Assay [3] concerns HCC-2998 colon.
In assay [4] the test system is OVCAR-3 ovarian.
The test system of assay [5] is A498 renal.
Assay [6] relates to OVCAR-5 ovarian.
The subject of assay [7] is CCRF-CEM leukemia.
In assay [8] the test system is HOP-62 NSCLC.
Assay [9] relates to MALME-3M melanoma.
Assay [10] has as its system SNB-19 CNS.

Molecules are shown by their SMILES.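 Exposure lasted 48 hours, with cells grown in 96-well plates and compounds tested at five concentrations. GI50 = concentration required for 50% inhibition of growth. TGI is the concentration that stops growth completely.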

With `CC(C)CC(=O)O[C@H]1C(=O)O[C@@H]2C[C@H]3[C@H](C)C(=O)C(O[C@@H]4O[C@H](CO)[C@@H](O)[C@H](O)[C@H]4O)=C[C@]3(C)[C@H]3[C@@H](O)[C@H](O)[C@]4(C(=O)O)OC[C@]32[C@@H]14`, the GI50 in assay [1] is greater than 100 µM; in assay [2] it was 32.8 µM; in [3], 20.6 µM; in [4], 36.4 µM; in assay [5] it was greater than 100 µM; in assay [7], 24.7 µM. Further, the GI50 in assay [8] is 44.7 µM; in [9], 22.8 µM; in assay [10], 31.9 µM. Further, the TGI was greater than 100 µM in assay [1]; greater than 100 µM in [2]; 54.4 µM in assay [3]; greater than 100 µM in assay [4]; greater than 100 µM in [5]; greater than 100 µM in [6]. In addition, the TGI in [7] is 83.6 µM; in assay [8], greater than 100 µM; in assay [9] it was 56.3 µM; in [10] it was greater than 100 µM.

Consider `C=C(CN1CCc2ccccc2C1)c1ccc(C(=O)Nc2cccc(N)c2)cc1`, for which the GI50 is 18.1 µM in assay [1]; 16 µM in [2]; 17.1 µM in assay [3]; 13.6 µM in [4]; 20.5 µM in assay [5]; 60.9 µM in assay [6]. Also, the GI50 in assay [7] is 16.4 µM; in assay [8] it was 25.6 µM; in [9] it was 15.1 µM; in assay [10] it was 35.9 µM. Further, the TGI was 44.8 µM in [1]; 33.5 µM in assay [2]; 31.9 µM in [3]; 35.3 µM in assay [4]; 45.5 µM in [5]; greater than 100 µM in assay [6]. The TGI in [7] is greater than 100 µM; in assay [8], 68.4 µM; in assay [9], 34.1 µM; in assay [10], greater than 100 µM.

Consider `CCCN1CCCC(c2ccc(Nc3nc(Nc4cc(F)ccc4C(N)=O)c4cc[nH]c4n3)c(OC)c2)C1` (centres undefined), for which the GI50 in assay [1] was 3.28 µM; in assay [2] it was 0.21 µM; in assay [3] it was 2.58 µM; in [4] it was 2.92 µM; in assay [5] it was 0.779 µM; in assay [6] it was 0.556 µM. Besides, the GI50 was 1.55 µM in assay [7], 2.62 µM in assay [8], 2.69 µM in assay [9] and 3.19 µM in [10]. Further, the TGI is 7.7 µM in assay [1]; 4.38 µM in assay [2]; 5.64 µM in [3]; 6 µM in [4]; 4.34 µM in assay [5]; 5.36 µM in assay [6]. Besides, the TGI in [7] turned out to be 18.4 µM; in assay [8] it was 5.58 µM; in [9] it was 6.34 µM; in assay [10] it was 6.45 µM.

`CNC(=S)N/N=C/CSC/C=N/NC(=S)NC`: the GI50 is greater than 100 µM in [1]; 8.33 µM in assay [2]; greater than 100 µM in [3]; greater than 56.9 µM in assay [4]; greater than 100 µM in assay [5]; greater than 100 µM in assay [6]. For the same compound, the GI50 was 24.7 µM in assay [7], greater than 100 µM in [8], greater than 100 µM in [9] and greater than 100 µM in assay [10]. Further, the TGI in assay [1], in assay [2], in assay [3], in assay [4], in [5] and in [6] was greater than 100 µM in each case. The TGI in [7], in [8], in assay [9] and in assay [10] was greater than 100 µM throughout.

In the case of `CC(=O)Nc1ccc(S(=O)(=O)N2C(=O)CCC2C(=O)Nc2ccccc2)cc1` (centres undefined), the GI50 in assay [1] was 1.38 µM; in [2] it was 0.389 µM; in assay [3] it was 0.645 µM; in [4], 1.75 µM; in [5], 0.303 µM; in assay [6], 3.16 µM. The GI50 is 0.433 µM in [7], 0.879 µM in assay [8], 3.38 µM in assay [9] and 1.74 µM in [10]. The TGI turned out to be 9.49 µM in assay [1]; 20 µM in assay [2]; 5.62 µM in assay [3]; 11.8 µM in assay [4]; 8.77 µM in assay [5]; 20.2 µM in [6]. The TGI in [7] stood at 14.2 µM; in [8], 13.4 µM; in [9], 18.8 µM; in [10] it was 19.2 µM.

Turning to `Nc1nc(-c2ccccn2)c(-c2ccc3ncccc3n2)s1`, the GI50 in assay [1], in assay [2], in assay [3], in assay [4], in [5] and in assay [6] was greater than 25 µM each time. Also, the GI50 in assay [7], in [8], in [9] and in assay [10] was greater than 25 µM throughout. Also, the TGI in [1], in [2], in assay [3], in assay [4], in assay [5] and in [6] was greater than 25 µM in each case. Also, the TGI in assay [7], in [8], in assay [9] and in assay [10] was greater than 25 µM throughout.

For `CC(C)OC(=O)OCOP(=O)(OCOC(=O)OC(C)C)C1CCCN(O)C1=O` (centres undefined), the GI50 was 0.632 µM in assay [1]; 0.711 µM in assay [2]; 2.07 µM in assay [3]; 1.47 µM in [4]; 0.0732 µM in assay [5]; 5.25 µM in [6]. Besides, the GI50 was 0.446 µM in assay [7], 2.12 µM in assay [8], 0.856 µM in assay [9] and 1.21 µM in assay [10]. Also, the TGI in assay [1] is greater than 100 µM; in assay [2], greater than 100 µM; in [3] it was 44.7 µM; in assay [4] it was greater than 100 µM; in [5] it was 0.867 µM; in [6] it was greater than 100 µM. Besides, the TGI in assay [7], in [8], in [9] and in assay [10] was greater than 100 µM each time.
